According to US7572798B2, “Combi-molecules having signal transduction inhibitory properties and DNA damaging properties” (McGill University, priority 2001, dated 2009):
“Also recorded” adds a separate entry of the source.

Columns and labels:
A431 cells = test: Alkaline comet assay for DNA damage in A431 cells; conditions: A431, 30 min or 2 h exposure
Description: A431 cells were exposed to drugs for 30 min or 2 h, and harvested with trypsin-EDTA. The cells were subsequently collected by centrifugation and re-suspended in PBS. The resulting cell suspension was diluted to approximately 10^6 cells, and mixed with agarose (1%) in PBS at 37° C. in a 1:10 dilution. The gels were cast on Gelbond strips (Mandel Scientific, Guelph, Canada) using gel casting chambers, as previously described (32), then immediately placed into a lysis buffer [2.5 M NaCl, 0.1 M tetra-sodium EDTA, 10 mM tris-base, 1% (w/v) N-lauryl sarcosine, 10% (v/v) DMSO and 1% (v/v) Triton X-100]. After being kept on ice for 30 min, the gels were gently rinsed with distilled water and then immersed in a second lysis buffer [2.5 M NaCl, 0.1 M tetra-sodium EDTA, 10 mM tris-base], containing 1 mg/ml proteinase K for 60 min at 37° C. Thereafter, the gels were rinsed with distilled water, incubated in alkaline electrophoresis buffer for 30 min at 37° C., and electrophoresed at 300 mA for 60 min. The gels were subsequently rinsed with distilled water and placed into 1 M ammonium acetate for 30 min. They were further soaked in 100% ethanol for 2 h, dried overnight and subsequently stained with SYBR Gold ( 1/10000 dilution of stock supplied from Molecular Probes, OR) for 20 min. For evaluation of comets, DNA damage was assessed using the Tail Moment parameter (i.e. the product of the distance between the barycentres of the head and the tail of the comet. A minimum of 50 cell comets were analyzed for each sample using ALKOMET v3.1 software, and values are an average of tail moments for the entire cell population.
Cell suspensions were diluted to approximately 10^6 cells, and mixed with agarose (1%) in PBS at 37° C. in a 1:10 dilution. The gels were cast on Gelbond strips (Mandel Scientific, Guelph, Canada) using gel casting chambers, as previously described (31), and then immediately placed in a lysis buffer [2.5 M NaCl, 0.1 M tetra-sodium EDTA, 10 mM Tris-base, 1% (w/v) N-lauryl sarcosine, 10% (v/v) DMSO, and 1% (v/v) Triton X-100, pH 10.0]. After being kept on ice for 30 min, the gels were gently rinsed with distilled water and immersed in a second lysis buffer (2.5 M NaCl, 0.1 M tetrasodium EDTA, 10 mM Tris-base) containing 1 mg/ml proteinase K for 60 min at 37° C. Thereafter, the gels were rinsed with distilled water, incubated in alkaline electrophoresis buffer for 30 min at 37° C., and electrophoresed at 300 mA for 60 min. The gels were subsequently rinsed with distilled water and placed in 1 M ammonium acetate for 30 min. They were soaked in 100% ethanol for 2 h, dried overnight, and subsequently stained with SYBR Gold ( 1/10000 dilution of stock supplied from Molecular Probes, Eugene, Oreg.) for 20 min. Comets were visualized at 330× magnification and DNA damage was quantitated using the Tail Moment parameter (i.e., the distance between the barycenter of the head and the tail of the comet multiplied by the percentage of DNA within the tail of the comet). A minimum of 50 cell comets were analyzed for each sample, using ALKOMET version 3.1 image analysis software, and values are averages of tail moments for the entire cell population per sample.

MAPK = test: EGF-induced MAPK phosphorylation in A431 cells (Western blot); assay type: cell-based, human; conditions: A431, at concentrations as low as 1 μM
Description: For the inhibition study of mitogen-activated protein kinase (MAPK) activation by BJ2000, protein lysates were obtained as described above and a Western blot was performed (39). The membrane was incubated with anti-phosphorylated MAPK antibodies or antibodies specific for MAPK (Cell Signaling, Beverly, Mass., USA).

[1] = tested on: NIH3T3 and NIH3T3HER14 cells; test: Alkaline comet assay in isogenic pair NIH3T3 / NIH3T3HER14; assay type: cell-based, mouse; conditions: NIH3T3HER14 versus NIH3T3, 30 min
Description: The alkaline comet assay was performed as previously described (26). […] Cell suspensions were diluted to approximately 10^6 cells, and mixed with agarose (1%) in PBS at 37° C. in a 1:10 dilution. The gels were cast on Gelbond strips (Mandel Scientific, Guelph, Canada) using gel casting chambers, as previously described (31), and then immediately placed in a lysis buffer [2.5 M NaCl, 0.1 M tetra-sodium EDTA, 10 mM Tris-base, 1% (w/v) N-lauryl sarcosine, 10% (v/v) DMSO, and 1% (v/v) Triton X-100, pH 10.0]. After being kept on ice for 30 min, the gels were gently rinsed with distilled water and immersed in a second lysis buffer (2.5 M NaCl, 0.1 M tetrasodium EDTA, 10 mM Tris-base) containing 1 mg/ml proteinase K for 60 min at 37° C. Thereafter, the gels were rinsed with distilled water, incubated in alkaline electrophoresis buffer for 30 min at 37° C., and electrophoresed at 300 mA for 60 min. […] Comets were visualized at 330× magnification and DNA damage was quantitated using the Tail Moment parameter (i.e., the distance between the barycenter of the head and the tail of the comet multiplied by the percentage of DNA within the tail of the comet). A minimum of 50 cell comets were analyzed for each sample, using ALKOMET version 3.1 image analysis software, and values are averages of tail moments for the entire cell population per sample.

NIH3T3HER14 cells = test: Growth factor-stimulated proliferation in NIH3T3HER14 cells (SRB); assay type: cell-based, mouse
Description: To study the effect of our compounds on growth factors stimulated proliferation, cells were grown to 70% confluence in 48-well plates and washed twice with PBS, after which they were exposed to serum-free medium for 18 h. The cells were then exposed to each drug and growth factors (EGF, TGFα, PDGF or serum) for 72 h and cell growth measured using the sulforhodamine B (SRB) assay (33). Briefly, following drug treatment, cells were fixed using 50 μl of cold trichloroacetic acid (50%) for 60 min at 4° C., washed five times with tap water, and stained for 30 min at room temperature with SRB (0.4%) dissolved in acetic acid (0.5%). The plates were rinsed five times with 1% acetic acid and allowed to air dry. […] Each point represents the average of at least two independent experiments run in triplicate.

EGFR = EGFR (Homo sapiens, UniProt P00533); test: EGF-induced EGFR autophosphorylation in A431 cells (Western blot)
Description: The inhibition of receptor autophosphorylation in viable cells was determined by anti-phosphotyrosine Western Blots. A431 cells were pre-incubated overnight for 24 h at 37° C. in a 6-well plate (1×10^6) with 0.1% serum, after which they were exposed to a range of doses for each drug for 2 h and subsequently treated with 50 ng/mL EGF for 30 min at 37° C. The cells were thereafter washed with PBS and re-suspended in cold lysis buffer [50 mM Tris-HCl pH 7.5; 150 mM NaCl; 1% NP40, 1 mM EDTA; 5 mM NaF; 1 mM Na3VO4; protease inhibitor tablet (Roche Biochemicals, Laval, Canada)]. The lysates were kept on ice for 30 min and collected by centrifugation at 10 000 rpm for 20 min at 4° C. The protein concentrations were determined against a standardized control using the Bio-Rad protein assay kit (Bio-Rad Laboratories, Hercules, Calif.). […] Non-specific binding on the PVDF membrane was minimized with a blocking buffer containing nonfat dry milk (3%) in PBS. The membrane was blotted with primary antibodies [either antiphosphotyrosine antibody (UBI, Lake Placid, N.Y.) for the detection of phosphotyrosine, or anti-EGFR (Neomarkers, Fremont, Calif.) for the determination of corresponding receptor levels], and anti-β-tubulin (Neomarkers, Fremont, Calif.) for the detection of equal loading. Thereafter, blots were incubated with HRP-goat anti-mouse antibody (1:200 dilution; Bio-Rad Laboratories, Hercules, Calif.) and the bands visualized with an enhanced chemiluminescence system (Amersham Pharmacia Biotech, Buckinghamshire, UK). Band intensities were measured using the SynGene GeneTools software package (Cambridge, UK).
The inhibition of receptor autophosphorylation in viable cells was determined by anti-phosphotyrosine Western Blots. […] Protein concentrations were determined against a standardized control using the Bio-Rad protein assay kit (Bio-Rad Laboratories, Hercules, Calif.). […] Band intensities were measured using the SynGene GeneTools software package (Cambridge, UK).

[2] = target: T1, HER2 (erbB2) gene product p185neu (Homo sapiens, UniProt P04626); test: Heregulin-stimulated phosphorylation of p185neu in MDA-MB453 cells; assay type: cell-based
T1 construct: heregulin (HRG)-stimulated phosphorylation of the HER2 (erbB2) gene product; endogenous in cells
T1 sequence (P04626 23-1255): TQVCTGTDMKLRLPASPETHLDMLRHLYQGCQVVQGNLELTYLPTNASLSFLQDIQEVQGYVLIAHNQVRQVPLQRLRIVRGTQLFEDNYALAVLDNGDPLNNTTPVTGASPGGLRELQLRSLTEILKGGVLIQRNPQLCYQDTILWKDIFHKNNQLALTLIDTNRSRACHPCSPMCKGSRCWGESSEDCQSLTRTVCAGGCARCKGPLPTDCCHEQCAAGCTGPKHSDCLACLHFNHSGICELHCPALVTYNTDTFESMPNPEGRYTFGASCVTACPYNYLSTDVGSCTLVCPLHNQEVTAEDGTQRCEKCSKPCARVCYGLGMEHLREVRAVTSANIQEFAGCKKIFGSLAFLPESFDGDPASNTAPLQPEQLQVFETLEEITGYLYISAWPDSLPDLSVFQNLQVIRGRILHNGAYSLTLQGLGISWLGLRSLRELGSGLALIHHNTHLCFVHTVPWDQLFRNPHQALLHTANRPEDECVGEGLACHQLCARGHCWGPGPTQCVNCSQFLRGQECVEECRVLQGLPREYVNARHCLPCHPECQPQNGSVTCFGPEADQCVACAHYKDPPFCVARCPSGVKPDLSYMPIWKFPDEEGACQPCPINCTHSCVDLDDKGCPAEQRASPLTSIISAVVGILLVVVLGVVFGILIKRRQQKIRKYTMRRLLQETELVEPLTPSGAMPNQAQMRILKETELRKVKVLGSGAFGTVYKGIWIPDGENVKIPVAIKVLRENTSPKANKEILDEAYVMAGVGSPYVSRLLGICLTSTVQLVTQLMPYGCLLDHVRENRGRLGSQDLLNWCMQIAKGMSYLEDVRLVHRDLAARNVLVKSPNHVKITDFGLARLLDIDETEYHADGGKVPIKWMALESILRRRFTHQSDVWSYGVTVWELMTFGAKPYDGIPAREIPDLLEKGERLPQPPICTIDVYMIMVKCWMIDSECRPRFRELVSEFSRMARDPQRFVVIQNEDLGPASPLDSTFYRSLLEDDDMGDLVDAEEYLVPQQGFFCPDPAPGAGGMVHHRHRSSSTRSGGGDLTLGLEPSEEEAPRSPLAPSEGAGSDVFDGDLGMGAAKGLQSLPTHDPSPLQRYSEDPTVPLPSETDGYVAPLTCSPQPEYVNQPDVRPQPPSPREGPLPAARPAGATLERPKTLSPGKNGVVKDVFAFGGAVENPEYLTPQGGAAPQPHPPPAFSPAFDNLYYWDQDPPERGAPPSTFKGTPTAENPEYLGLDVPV

EGFR, sequence (P00533 25-1210): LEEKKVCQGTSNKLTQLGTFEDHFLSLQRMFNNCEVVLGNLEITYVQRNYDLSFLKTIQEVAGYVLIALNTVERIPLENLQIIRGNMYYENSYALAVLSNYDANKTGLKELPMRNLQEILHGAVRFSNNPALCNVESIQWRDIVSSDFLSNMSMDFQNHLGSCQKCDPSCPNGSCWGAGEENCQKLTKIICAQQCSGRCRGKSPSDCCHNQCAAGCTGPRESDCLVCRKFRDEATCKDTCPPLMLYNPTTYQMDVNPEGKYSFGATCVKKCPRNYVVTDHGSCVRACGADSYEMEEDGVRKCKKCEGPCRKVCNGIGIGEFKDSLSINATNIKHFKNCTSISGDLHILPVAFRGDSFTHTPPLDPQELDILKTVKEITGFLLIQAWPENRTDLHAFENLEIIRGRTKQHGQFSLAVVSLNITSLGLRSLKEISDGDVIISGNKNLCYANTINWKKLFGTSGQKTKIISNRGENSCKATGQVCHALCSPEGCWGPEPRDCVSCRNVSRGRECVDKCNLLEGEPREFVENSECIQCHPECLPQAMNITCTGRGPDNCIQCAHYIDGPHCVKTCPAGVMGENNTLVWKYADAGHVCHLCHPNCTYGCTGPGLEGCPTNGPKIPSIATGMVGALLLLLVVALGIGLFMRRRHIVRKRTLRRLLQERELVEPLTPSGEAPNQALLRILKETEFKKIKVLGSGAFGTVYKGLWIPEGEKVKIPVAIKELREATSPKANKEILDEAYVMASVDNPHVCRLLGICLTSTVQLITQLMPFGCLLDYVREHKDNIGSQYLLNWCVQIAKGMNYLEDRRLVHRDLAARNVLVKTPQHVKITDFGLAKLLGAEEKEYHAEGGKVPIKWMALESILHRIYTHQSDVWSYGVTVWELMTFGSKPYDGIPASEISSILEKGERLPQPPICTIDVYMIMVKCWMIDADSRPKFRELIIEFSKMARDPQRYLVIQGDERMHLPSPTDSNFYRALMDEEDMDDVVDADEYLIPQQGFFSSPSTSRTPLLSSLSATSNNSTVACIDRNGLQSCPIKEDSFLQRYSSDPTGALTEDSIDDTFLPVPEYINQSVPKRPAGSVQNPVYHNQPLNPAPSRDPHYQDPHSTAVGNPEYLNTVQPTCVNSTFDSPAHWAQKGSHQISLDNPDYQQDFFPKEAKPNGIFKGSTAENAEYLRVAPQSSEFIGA

SMILES: CNN=Nc1ccc2ncnc(Nc3cccc(Cl)c3)c2c1 [BJ2000]
- DNA damage (comet tail moment) (A431 cells): induced dose-dependent DNA damage; also recorded: induced significant DNA damage
- inhibition of EGF-induced MAPK phosphorylation (MAPK): complete inhibition; also recorded: block MAPK phosphorylation
- fold higher levels of DNA damage in the EGFR transfectant [1]: more than 2 fold
- concentration giving 100% growth inhibition (NIH3T3HER14 cells; EGF or TGFα-induced proliferation, NIH3T3HER14, 72 h): 1 µM
- concentration giving 100% inhibition (NIH3T3HER14 cells; PDGF-stimulated growth, NIH3T3HER14, 72 h): approximately 30 μM
- fold less effective in inhibiting PDGF-stimulated growth (NIH3T3HER14 cells; versus EGF or TGFα-induced proliferation, NIH3T3HER14): approximately 30 fold
- IC50 (EGFR): ~6 µM
- effect on heregulin (HRG)-stimulated phosphorylation of p185neu [2]: able to block
